# Laboratory results published in PubChem BioAssay (NCI).
#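 Protocol summary: plate cells (96-well), add compound at 5 concentrations, incubate 48 h, interpolate endpoints linearly. GI50 is the concentration that inhibits growth by half. At the TGI there is no net growth.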
# Experiments:
# Experiment in all cases: DTP human tumour cell line panel, 48 h
# A549 NSCLC = test system: A549 NSCLC
# COLO 205 colon = test system: COLO 205 colon
# HCC-2998 colon = test system: HCC-2998 colon
# HOP-92 NSCLC = test system: HOP-92 NSCLC
# NCI/ADR-RES ovarian = test system: NCI/ADR-RES ovarian
# OVCAR-3 ovarian = test system: OVCAR-3 ovarian
# RXF 393 renal = test system: RXF 393 renal
# U251 CNS = test system: U251 CNS
# UACC-62 melanoma = test system: UACC-62 melanoma
# ACHN renal = test system: ACHN renal
# MDA-MB-231 breast = test system: MDA-MB-231 breast
# PC-3 prostate = test system: PC-3 prostate
Structure (SMILES),TGI (A549 NSCLC) [µM],TGI (COLO 205 colon) [µM],TGI (HCC-2998 colon) [µM],TGI (HOP-92 NSCLC) [µM],TGI (NCI/ADR-RES ovarian) [µM],TGI (OVCAR-3 ovarian) [µM],TGI (RXF 393 renal) [µM],TGI (U251 CNS) [µM],TGI (UACC-62 melanoma) [µM],TGI (ACHN renal) [µM],TGI (MDA-MB-231 breast) [µM],TGI (PC-3 prostate) [µM],GI50 (ACHN renal) [µM],GI50 (COLO 205 colon) [µM],GI50 (HOP-92 NSCLC) [µM],GI50 (MDA-MB-231 breast) [µM],GI50 (NCI/ADR-RES ovarian) [µM],GI50 (PC-3 prostate) [µM],GI50 (RXF 393 renal) [µM],GI50 (UACC-62 melanoma) [µM]
O=C1OC2CC=CC1C2 (configuration not stated),> 100,> 100,> 100,> 100,> 100,> 100,> 100,> 100,> 100,–,–,–,–,–,–,–,–,–,–,–
COc1ccc(NC(=S)N/N=C(\C)c2nc3ncccc3[nH]2)cc1,> 100,> 100,> 100,37.7,> 100,6.9,–,> 100,73.2,> 100,> 100,45.2,–,–,–,–,–,–,–,–
O=C(Oc1ccc(Cl)cc1[N+](=O)[O-])c1ccccc1,> 100,> 100,> 100,> 100,–,> 100,> 100,> 100,> 100,> 100,–,–,–,–,–,–,–,–,–,–
SC1CCCN(Cc2ccccc2)C1 (configuration not stated),> 100,33.7,31.4,> 100,> 100,> 100,> 100,> 100,> 100,> 100,> 100,> 100,–,–,–,–,–,–,–,–
CCCC(=O)O.CCCC(=O)O.CCCC(=O)O.CCCC(=O)O.[Rh].[Rh],–,0.0406,–,0.476,0.589,–,0.052,–,0.142,0.212,0.108,0.47,0.0451,0.0186,0.211,0.0322,0.185,0.0618,0.0224,0.0343
COc1cc(/C=C/C(=O)CC(=O)/C=C/c2ccc(O)c(OC)c2)ccc1O,31.7,28.9,8.08,–,27.6,24.7,11.3,16.5,20.6,28.9,55.7,26,–,–,–,–,–,–,–,–
O=C(COc1ccc(Cl)c(Cl)c1)N(Cc1ccccc1)Cc1ccc[n+](Cc2ccc(Cl)cc2S(=O)(=O)F)c1,> 100,> 100,–,> 100,> 100,> 100,> 100,> 100,> 100,> 100,31.9,> 100,–,–,–,–,–,–,–,–
COc1ccc(OC)c(CC(C)N)c1 (configuration not stated),> 100,> 100,> 100,–,–,> 100,> 100,> 100,> 100,> 100,–,–,–,–,–,–,–,–,–,–
CC(C)(C)OC(=O)NC1CCC(C(C)(C)C)CC1 (configuration not stated),> 100,> 100,> 100,–,> 100,> 100,> 92.2,> 100,> 100,–,–,–,–,–,–,–,–,–,–,–
COc1cc(S(=O)(=O)Nc2nc(-c3ccc(N4C(=O)/C(=C/c5ccccc5[N+](=O)[O-])N=C4c4ccccc4)cc3)cs2)ccc1Cl,> 100,> 100,–,> 100,> 100,> 100,> 100,> 100,92.8,> 100,42.2,> 100,–,–,–,–,–,–,–,–
Cl/C(=C\C=Nc1ccc(I)cc1)c1ccc2ccccc2c1,> 100,43,17.8,> 85,32.5,30.9,61.8,35,34.3,29.9,36,> 100,–,–,–,–,–,–,–,–
C=CCNS(=O)(=O)c1ncnc2nc[nH]c12,> 100,> 100,–,> 100,> 100,> 100,> 100,> 100,> 100,> 100,> 100,> 100,–,–,–,–,–,–,–,–
C=C1C(=O)OC2CC1CCC1(C)OC1CCC(C)=CCCC2(C)O (configuration not stated),26.9,5.95,15.2,5.89,5.84,9.3,3.61,29.2,10,–,–,–,–,–,–,–,–,–,–,–
c1ccc(C[N+]23CN4CN(CN(C4)C2)C3)cc1,91.8,35.8,39.9,70.2,> 100,> 100,36.8,35.6,32.1,87.9,49.8,35.7,–,–,–,–,–,–,–,–
O=C1OCc2cc3cc4c(cc3c(-c3ccc5c(c3)OCO5)c21)OCO4 (tested in a mixture with another compound),–,75.1,> 100,43.5,> 100,21.4,22.5,43.7,68,–,15.6,> 100,–,–,–,–,–,–,–,–
O=C1CCCC2C3CC(CN12)C1CCCCN1C3 (configuration not stated),> 100,> 100,> 100,> 100,> 100,> 100,> 100,> 100,> 100,> 100,> 100,> 100,–,–,–,–,–,–,–,–
CC(C)(C)c1ccc(/C=N/NC(=O)CSCC(=O)N/N=C/c2ccc(C(C)(C)C)cc2)cc1,11.6,3.7,4.8,38.9,15.5,–,4.29,5.87,32,13.5,2.43,18.2,–,–,–,–,–,–,–,–
O=C(/C=C/c1ccccc1)N1CCCCC1,> 100,> 100,> 100,> 100,> 100,> 100,> 100,> 100,> 100,> 100,> 100,> 100,–,–,–,–,–,–,–,–
COc1c(OC/C=C(\C)CCC=C(C)C)ccc2ccc(=O)oc12,> 100,> 100,> 100,> 100,> 100,> 100,–,> 100,> 100,> 100,> 100,> 100,–,–,–,–,–,–,–,–
CC(=O)NNC(=O)C1CCCCN1 (configuration not stated),> 100,> 100,–,> 100,–,> 100,> 100,> 100,–,> 100,> 100,> 100,–,–,–,–,–,–,–,–
CC[C@]12C=CCN3CC[C@@]4(c5cc(Br)c(OC)cc5N(C)[C@H]4[C@@](O)(C(=O)N[C@@H](Cc4ccc(O)cc4)C(=O)OC)[C@@H]1O)[C@@H]32,> 100,33.1,94.6,–,62.3,89.7,38.4,27.8,33.9,> 100,30.6,> 100,–,–,–,–,–,–,–,–
Br/C(=N\Nc1nn[nH]n1)c1ccncc1,> 100,> 100,–,> 100,> 100,> 100,> 100,> 100,> 100,> 100,> 100,> 100,–,–,–,–,–,–,–,–
